Laboratory results published in patent publication US10583137B2, “Triazole DAGLα inhibitors” (THE SCRIPPS RESEARCH INSTITUTE, priority 2015, dated 2020).
Where two headings read alike, the source gives them in different places.

Assays:
recombinant human DAGLα = recombinant human DAGLα (Homo sapiens (Human), UniProt Q9Y4D2); assay: SAG substrate assay (in vitro inhibition of 2-AG biosynthesis), membrane lysates from HEK293T cells; assay type: biochemical; settings: n=4, read-out: IC50, DAGLα conversion of SAG to 2-AG
Method: (§1) DAGL modulators were tested for in vitro inhibition of 2-AG biosynthesis using a 1-stearoyl-2-arachidonoyl-sn-glycerol (SAG) substrate assay in DAGL-transfected HEK293 cells.
(§2) The SAG substrate assay, as described in Journal of lipid research 56(4):927-935, was performed using the following assay conditions: 0.2 U/mL glycerol kinase (GK), glycerol-3-phosphate oxidase (GPO) and horseradish peroxidase (HRP), 0.125 mM ATP, 10 μM Amplifu™Red, 5% DMSO in a total volume of 200 μL. The assay additionally contained SAG, a DAGL modulator, and membrane lysates from HEK293T cells expressing recombinant human DAGLα or DAGLβ.
(§3) Membranes were prepared from HEK293T cells transiently transfected with DAGLα or DAGLβ plasmids encoding for full length DAGLα or DAGLβ, respectively (Angewandte Chemie 52(46):12081-12085; Journal of Medicinal Chemistry 57(15):6610-6622). Briefly, one day prior to transfection, 10^7 cells were seeded in a 15 cm petri dish. The seeded cells were transfected by the addition of a 3:1 mixture of polyethyleneimine (60 μg) and plasmid DNA (20 μg) in 2 mL serum free medium. The medium was refreshed after 24 hr, and after 72 hr the cells were harvested by suspending them in 20 mL medium. The suspension was centrifuged for 10 min at 1000 rpm, and the supernatant was removed. The cell pellet was stored at −80° C. until use. Cell pellets were thawed on ice and suspended in lysis buffer A (20 mM HEPES, 2 mM DTT, 0.25 M sucrose, 1 mM MgCl2, lx protease inhibitor cocktail (Roche cOmplete EDTA free), 25 U/μL Benzonase). The suspension was homogenized by polytrone (3×7 sec) and incubated for 30 min on ice. The suspension was subjected to ultracentrifugation (100,000×g, 30 min, 4° C., Beckman Coulter, Type Ti70 rotor) to yield the cytosolic fraction in the supernatant and the membrane fraction as a pellet. The pellet was resuspended in lysis buffer B (20 mM HEPES, 2 mM DTT, lx protease inhibitor cocktail (Roche cOmplete EDTA free)) and the protein concentration determined with Quick Start Bradford assay (Biorad). The protein fractions were diluted to a total protein concentration of 1 mg/mL and stored in small aliquots at −80° C. until use.

recombinant human DAGLβ = recombinant human DAGLβ (Homo sapiens (Human), UniProt Q8NCG7); assay: as above; assay type: biochemical
Method: as §1, §2, §3

DAGLα (hDAGLα-FLAG) = DAGLα (hDAGLα-FLAG) (Homo sapiens (Human), UniProt Q9Y4D2); assay: competitive ABPP, membrane proteome of transfected HEK293T cells; assay type: biochemical; settings: read-out: DAGLα IC50
Procedure, shortened: (§4)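 HEK293T membrane proteome (1 mg/ml) expressing FLAG-tagged human DAGLα or DAGLβ, treated 30 min at room temperature with compound, then 30 min with HT-01 or FP-Rh probe (1 μM). Bands separated by SDS-PAGE were normalized to DMSO for IC50 by variable-slope fit.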

DAGLβ (hDAGLβ-FLAG) = DAGLβ (hDAGLβ-FLAG) (Homo sapiens (Human), UniProt Q8NCG7); assay: as above; assay type: biochemical; settings: read-out: DAGLβ IC50
Procedure, shortened: as §4

[1] = biological target: cannabinoid CB1 (CB1R) receptor (Homo sapiens (Human), UniProt P21554); assay: radioligand binding assay
Method: (§5) Data represent average values±SEM; n=3 per group. […] Compounds 14 and 17 had minimal and negligible binding, respectively, to cannabinoid CB1 (CB1R) and CB2 (CB2R) receptors as measured with a radioligand binding assay (IC50 values>1 μM) (data not shown).

[2] = biological target: cannabinoid CB2 (CB2R) receptor (Homo sapiens (Human), UniProt P34972); assay: radioligand binding assay
Method: as §5

[3] = test system: DSI at CA1 pyramidal neuron synapses; assay: depolarization-induced suppression of inhibition (DSI) in hippocampal slices; settings: bath application 30 min
Method: DSI was evaluated at CA1 pyramidal neuron synapses in hippocampal slices. DSI was induced in vehicle-treated hippocampal slices by applying a brief depolarization while evoking […] through stimulation of synaptic inhibitory inputs (FIG. 7C). Bath application of compound 14 (10 μM) and compound 17 (1 μM), but not compound 22 (10 μM), for 30 min before starting electrophysiological recordings blocked hippocampal DSI (FIGS. 7C and D).

Sequence of recombinant human DAGLβ (Q8NCG7 whole entry): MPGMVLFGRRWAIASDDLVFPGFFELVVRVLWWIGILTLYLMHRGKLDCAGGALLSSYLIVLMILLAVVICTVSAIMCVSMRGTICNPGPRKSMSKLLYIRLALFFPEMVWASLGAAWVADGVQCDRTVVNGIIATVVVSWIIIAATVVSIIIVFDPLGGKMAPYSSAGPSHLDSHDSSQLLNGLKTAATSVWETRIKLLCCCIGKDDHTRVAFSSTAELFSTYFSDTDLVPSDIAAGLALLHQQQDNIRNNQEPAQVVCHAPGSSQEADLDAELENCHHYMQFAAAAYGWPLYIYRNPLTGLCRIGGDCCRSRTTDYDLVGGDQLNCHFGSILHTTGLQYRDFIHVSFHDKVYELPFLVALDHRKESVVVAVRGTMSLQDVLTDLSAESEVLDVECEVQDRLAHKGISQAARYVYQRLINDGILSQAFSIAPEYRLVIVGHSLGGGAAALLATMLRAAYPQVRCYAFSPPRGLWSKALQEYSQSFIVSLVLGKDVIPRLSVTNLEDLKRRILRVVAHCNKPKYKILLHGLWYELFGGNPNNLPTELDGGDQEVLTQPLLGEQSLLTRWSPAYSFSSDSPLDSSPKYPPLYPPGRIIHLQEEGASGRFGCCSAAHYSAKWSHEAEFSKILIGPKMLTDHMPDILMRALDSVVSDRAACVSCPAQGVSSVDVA
Sequence of DAGLβ (hDAGLβ-FLAG) (Q8NCG7 whole entry): as above
Sequence of recombinant human DAGLα (Q9Y4D2 whole entry): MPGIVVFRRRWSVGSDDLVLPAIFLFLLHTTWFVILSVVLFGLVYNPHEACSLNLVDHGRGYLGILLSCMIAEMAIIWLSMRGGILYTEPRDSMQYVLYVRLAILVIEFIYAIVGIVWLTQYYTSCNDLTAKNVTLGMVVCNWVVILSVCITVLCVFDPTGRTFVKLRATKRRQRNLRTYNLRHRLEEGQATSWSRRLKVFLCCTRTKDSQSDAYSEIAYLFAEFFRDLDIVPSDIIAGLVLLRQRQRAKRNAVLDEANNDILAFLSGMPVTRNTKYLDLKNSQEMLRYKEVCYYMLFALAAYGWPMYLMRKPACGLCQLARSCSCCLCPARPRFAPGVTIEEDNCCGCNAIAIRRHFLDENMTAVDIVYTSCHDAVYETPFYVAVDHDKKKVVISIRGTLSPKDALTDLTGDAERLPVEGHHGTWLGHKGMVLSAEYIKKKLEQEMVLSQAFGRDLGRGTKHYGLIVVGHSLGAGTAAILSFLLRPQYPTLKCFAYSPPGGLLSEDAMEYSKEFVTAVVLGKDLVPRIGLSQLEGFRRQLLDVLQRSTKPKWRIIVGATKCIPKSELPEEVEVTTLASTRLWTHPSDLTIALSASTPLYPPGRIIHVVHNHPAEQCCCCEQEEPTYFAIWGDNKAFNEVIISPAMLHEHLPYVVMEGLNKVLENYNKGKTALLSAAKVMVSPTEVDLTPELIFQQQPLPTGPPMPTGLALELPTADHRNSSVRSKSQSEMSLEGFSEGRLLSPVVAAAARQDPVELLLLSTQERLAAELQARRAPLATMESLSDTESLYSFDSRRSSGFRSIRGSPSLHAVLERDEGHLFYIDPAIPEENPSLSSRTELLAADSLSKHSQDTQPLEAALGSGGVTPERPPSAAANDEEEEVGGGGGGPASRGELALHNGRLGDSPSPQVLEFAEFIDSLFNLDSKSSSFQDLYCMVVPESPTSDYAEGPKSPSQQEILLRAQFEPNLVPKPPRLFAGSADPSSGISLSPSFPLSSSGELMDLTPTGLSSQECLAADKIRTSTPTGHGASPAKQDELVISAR
Sequence of DAGLα (hDAGLα-FLAG) (Q9Y4D2 whole entry): as above
Sequence of cannabinoid CB2 (CB2R) receptor (P34972 whole entry): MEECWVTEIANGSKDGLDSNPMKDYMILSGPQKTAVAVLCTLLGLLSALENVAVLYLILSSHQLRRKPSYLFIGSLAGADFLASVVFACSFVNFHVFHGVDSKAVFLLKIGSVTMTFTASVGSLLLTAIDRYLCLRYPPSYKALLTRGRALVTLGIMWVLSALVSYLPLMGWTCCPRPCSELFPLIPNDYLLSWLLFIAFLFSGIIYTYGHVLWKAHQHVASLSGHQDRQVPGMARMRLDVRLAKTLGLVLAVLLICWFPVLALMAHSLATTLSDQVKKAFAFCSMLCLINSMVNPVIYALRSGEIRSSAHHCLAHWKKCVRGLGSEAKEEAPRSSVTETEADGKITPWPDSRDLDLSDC
Sequence of cannabinoid CB1 (CB1R) receptor (P21554 whole entry): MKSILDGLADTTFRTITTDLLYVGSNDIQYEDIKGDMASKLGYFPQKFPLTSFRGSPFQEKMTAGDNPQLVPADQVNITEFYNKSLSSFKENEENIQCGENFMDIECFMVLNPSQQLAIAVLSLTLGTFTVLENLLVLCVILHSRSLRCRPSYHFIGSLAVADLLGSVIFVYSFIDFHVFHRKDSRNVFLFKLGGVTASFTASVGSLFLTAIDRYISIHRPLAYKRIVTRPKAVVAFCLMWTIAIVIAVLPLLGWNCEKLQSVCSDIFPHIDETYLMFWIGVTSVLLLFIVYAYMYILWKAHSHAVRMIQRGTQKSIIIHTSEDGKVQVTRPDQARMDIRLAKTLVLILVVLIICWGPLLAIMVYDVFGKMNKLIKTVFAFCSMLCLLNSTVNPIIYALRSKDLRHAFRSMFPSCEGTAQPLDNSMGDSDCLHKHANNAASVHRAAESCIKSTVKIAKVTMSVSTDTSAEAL

## CC(C)(C)OC(=O)N1CCN(C(=O)n2cc(-c3ccc(OC(F)(F)F)cc3)nn2)C(Cc2ccccc2)C1 (centres unmarked) [Compound 17, tert-Butyl 3-benzyl-4-(4-(4-(trifluoromethoxy)phenyl)-1H-1,2,3-triazole-1-carbonyl)piperazine-1-carboxylate]
Recombinant human DAGLα
  IC50: 6 nM
Recombinant human DAGLβ
  IC50: 3 to 8 nM
DAGLα (hDAGLα-FLAG)
  IC50: ≤ 400 nM
DAGLβ (hDAGLβ-FLAG)
  IC50: ≤ 400 nM
[1]; radioligand binding assay, read-out: IC50, CB1R binding
  IC50: > 1000 nM
[2]; radioligand binding assay, read-out: IC50, CB2R binding
  IC50: > 1000 nM
[3]; 1 μM
  effect on hippocampal DSI: blocked

## C#CCO[C@@H]1CC[C@H](Cc2ccccc2)N(C(=O)n2ncc(C(O)(c3ccc(F)cc3)c3ccc(F)cc3)n2)C1 [Compound 14, ((2R,5R)-2-Benzyl-5-(prop-2-ynyloxy)piperidin-1-yl)(4-(bis(4-fluorophenyl)(hydroxy)methyl)-2H-1,2,3-triazol-2-yl)methanone]
Recombinant human DAGLα
  IC50: 6 nM
Recombinant human DAGLβ
  IC50: 3 to 8 nM
DAGLα (hDAGLα-FLAG)
  IC50: ≤ 400 nM
DAGLβ (hDAGLβ-FLAG)
  IC50: ≤ 400 nM
[1]
  IC50: > 1000 nM
[2]
  IC50: > 1000 nM
[3]; 10 μM
  effect on hippocampal DSI: blocked
